Laboratory results as given in patent US9683994B2, “High throughput mobility shift” (Caliper Life Sciences, Inc., priority 2002, dated 2017).

Biological target: Protein Kinase A (PKA) (Homo sapiens, UniProt P17612)
Assay: pulsed field mobility shift assay screening for Protein Kinase A (PKA) inhibitors
Assay type: biochemical
Settings: from dose response curve (FIG. 10), 7 H9 concentrations 0.15-30.75 μM; pulsed field and standard (constant field) mobility shift assays predict same Ki; read-out: Ki value for the inhibitor
Method: In an exemplary embodiment, the pulsed field mobility shift assay was used for screening for Protein Kinase A (PKA) inhibitors. Samples were drawn from a 96 well plate into a microfluidic device through a capillary. The plate contained 7 different concentration samples (0.15 μM, 0.32 μM, 0.63 μM, 1.54 μM, 2.52 μM, 5.05 μM, and 30.75 μM) of H9 at randomly chosen wells. Except for a single well containing the 30.75 μM concentration of H9, two wells contained each of the other six concentrations of H9. The last column of each row of the well plate contained a marker used to indicate the end of row. In this embodiment, the marker was 1 μM of 100% converted PKA product. Once in the reaction channel of the microfluidic device, the pressure driven velocity of the sample was set at 0.028 cm/s and the applied electric field was set to 997 V/cm. […] Each sample was sipped for 30 seconds separated by a 30 second buffer sip. […] From the data in FIGS. 8 and 9, the parameter C1/C0, which is the ratio of the fluorescence measured while the electric field is on to the fluorescence measured while the field is off, was determined for each of the seven H9 concentrations. That parameter was also measured in the absence of H9 to provide a baseline value. The deviation from the baseline value ΔC/C=((C1/C0)|H9sample−(C1/C0)|buffer), was evaluated for each H9 sample. […]

NCCNS(=O)(=O)c1cccc2cnccc12 [H9]
Ki: 3.5 µM
